Data on 20 compounds can be found in PubChem BioAssay (NCI).

Several values for one entry are separate records, joined by “and”; a condition that tells them apart may be missing. Equal entries are not always repeated.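 Briefly, cells in 96-well plates were exposed to five compound concentrations for 48 h, and endpoints were estimated by linear interpolation. GI50: concentration for 50% inhibition of growth. TGI is the concentration that stops growth completely.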

The first experiment has as its system MOLT-4 leukemia. The experiment can be described thus: growth of human tumour cells (NCI), 48 h.
For the compound `CCCCN(CCCC)C(=O)C(=O)C(C#N)c1ccc(C)cc1` (configuration not stated), the TGI was more than 100 µM.
`Cc1ccc(S(=O)(=O)C(CC(=O)N2CCCC2)C(=O)c2ccccc2)cc1` (configuration not stated) had a TGI of more than 100 µM.
On the same count and under the same terms, the value for `CC1(C)CC(/C=C2/OC(=O)c3ccccc32)=C(C#N)C(=O)O1` was more than 100 µM; that for `Cc1nc2c(nc1Cl)nc(Oc1ccc(Cl)cc1)c1ccccc12` was more than 100 µM.
Same read-out and setting: as for `CCOC(=O)NC(=O)c1cn(C2OC(COC(=O)CCCCCCCCC(=O)OCC3OC(n4cc(C(=O)NC(=O)OCC)c(=O)[nH]c4=O)C(O)C3O)C(O)C2O)c(=O)[nH]c1=O` (configuration not stated), the figure is more than 100 µM; as for `Cc1ccc(C)c(NC(=O)CC/C(=N\NC(=O)C(=O)NN)C(C)C(=O)c2ccc(O)cc2)c1` (configuration not stated), more than 100 µM; as for `N=C1CSC2=NC3=C(CCC/C3=C\c3ccccc3)C(c3ccccc3)N12` (configuration not stated), 8.03 µM.
The same measure, in the same setting: the value for `COc1ccccc1C1C(C(=O)Nc2ccccc2)=C(C)NC(C)=C1C(=O)Nc1ccccc1` was 56.8 µM; that for `OCc1ccc2[n+](c1)CCC1c3ccccc3NC21` (configuration not stated) was more than 300 µM; that for `Cc1cc2c(cc1C)[n+](=O)c(C(=O)CC(=O)C(=O)Nc1c(C(C)C)cccc1C(C)C)c(C)n2[O-]` was more than 100 µM.
`COc1ccc2cc1Oc1ccc(cc1)CC1c3cc(c(OC)cc3CCN1C)Oc1c3c(cc4c1C(C2)N(C)CC4)OCO3` (configuration not stated) came in with a TGI of 21.5 µM.
Still for that read-out and setting: the value for `COc1ccc(OC)c(NC(=O)C(=O)C(C(C)=O)c2nc3ccc(Cl)cc3[nH]c2=O)c1` (configuration not stated) was more than 50 µM.

Another experiment concerns NCI-H522 lung. Kind of experiment: growth of human tumour cells (NCI), 48 h.
Consider `CC1(Cl)C(=O)NC(=O)N(C2CC(N=[N+]=[N-])C(CO)O2)C1N=[N+]=[N-]` (configuration not stated), for which the TGI is more than 100 µM.
The same measure, in the same setting: as for `COc1ccc2ccc3c(c2c1)CN1CCc2cc(OC)c(OC)cc2C1C3` (configuration not stated), the figure is more than 100 µM; as for `OCCC1(O)CCC(O)CC1` (configuration not stated), more than 100 µM; as for `CCCCNC1=C(C(=O)OCC)C(=O)CO1`, more than 100 µM.
On to `CC(C)CC(=O)[O-].CC(C)CC(=O)[O-].N.N.N.N.[Co+3].[O-][Cl+3]([O-])([O-])[O-]`, for which the GI50 is 51 µM and 90 µM; the TGI is more than 100 µM.
For `COC(=O)CC(=O)C[P+](c1ccccc1)(c1ccccc1)c1ccccc1`, the TGI was 86.8 µM.
Regarding `CCCCN(CCCC)C(=O)C(=O)C(C#N)c1ccc(C)cc1` (configuration not stated), the TGI was more than 100 µM.
The same measure, in the same setting: the value for `Cc1ccc(S(=O)(=O)C(CC(=O)N2CCCC2)C(=O)c2ccccc2)cc1` (configuration not stated) was more than 100 µM; that for `CC1(C)CC(/C=C2/OC(=O)c3ccccc32)=C(C#N)C(=O)O1` was more than 100 µM; that for `Cc1nc2c(nc1Cl)nc(Oc1ccc(Cl)cc1)c1ccccc12` was more than 100 µM.
Turning to `Cc1ccc(C)c(NC(=O)CC/C(=N\NC(=O)C(=O)NN)C(C)C(=O)c2ccc(O)cc2)c1` (configuration not stated), the TGI was more than 100 µM.
The same measure, in the same setting: as for `N=C1CSC2=NC3=C(CCC/C3=C\c3ccccc3)C(c3ccccc3)N12` (configuration not stated), the figure is 9.71 µM; as for `COc1ccccc1C1C(C(=O)Nc2ccccc2)=C(C)NC(C)=C1C(=O)Nc1ccccc1`, more than 100 µM; as for `OCc1ccc2[n+](c1)CCC1c3ccccc3NC21` (configuration not stated), more than 300 µM.
Still for that read-out and setting: the value for `Cc1cc2c(cc1C)[n+](=O)c(C(=O)CC(=O)C(=O)Nc1c(C(C)C)cccc1C(C)C)c(C)n2[O-]` was more than 100 µM.
`COc1ccc2cc1Oc1ccc(cc1)CC1c3cc(c(OC)cc3CCN1C)Oc1c3c(cc4c1C(C2)N(C)CC4)OCO3` (configuration not stated) yielded a TGI of 20.3 µM.

The next experiment relates to OVCAR-4 ovarian. Kind of experiment: growth of human tumour cells (NCI), 48 h.
`CC1(Cl)C(=O)NC(=O)N(C2CC(N=[N+]=[N-])C(CO)O2)C1N=[N+]=[N-]` (configuration not stated): the TGI was more than 100 µM.
Still for that read-out and setting: as for `COc1ccc2ccc3c(c2c1)CN1CCc2cc(OC)c(OC)cc2C1C3` (configuration not stated), the figure is more than 100 µM.
Same read-out and setting: the value for `OCCC1(O)CCC(O)CC1` (configuration not stated) was more than 100 µM; that for `CCCCNC1=C(C(=O)OCC)C(=O)CO1` was more than 100 µM.
As for `CC(C)CC(=O)[O-].CC(C)CC(=O)[O-].N.N.N.N.[Co+3].[O-][Cl+3]([O-])([O-])[O-]`, the GI50 was more than 100 µM and the TGI is more than 100 µM.
As to `CCCCN(CCCC)C(=O)C(=O)C(C#N)c1ccc(C)cc1` (configuration not stated), the TGI is more than 100 µM.
Still for that read-out and setting: as for `Cc1ccc(S(=O)(=O)C(CC(=O)N2CCCC2)C(=O)c2ccccc2)cc1` (configuration not stated), the figure is more than 100 µM.
Still for that read-out and setting: the value for `CC1(C)CC(/C=C2/OC(=O)c3ccccc32)=C(C#N)C(=O)O1` was more than 100 µM; that for `Cc1nc2c(nc1Cl)nc(Oc1ccc(Cl)cc1)c1ccccc12` was more than 100 µM; that for `CC12CC[C@@H](C(C)(C)O)C1[C@@H](O)CC1(C)C2CCC2[C@@]3(C)CC[C@H](O)C(C)(C)C3C(O)C[C@]21C` (some centres not stated) was 32.6 µM.
Still for that read-out and setting: the value for `CCOC(=O)NC(=O)c1cn(C2OC(COC(=O)CCCCCCCCC(=O)OCC3OC(n4cc(C(=O)NC(=O)OCC)c(=O)[nH]c4=O)C(O)C3O)C(O)C2O)c(=O)[nH]c1=O` (configuration not stated) was more than 100 µM; that for `Cc1ccc(C)c(NC(=O)CC/C(=N\NC(=O)C(=O)NN)C(C)C(=O)c2ccc(O)cc2)c1` (configuration not stated) was more than 100 µM; that for `COc1ccccc1C1C(C(=O)Nc2ccccc2)=C(C)NC(C)=C1C(=O)Nc1ccccc1` was more than 100 µM.
`Cc1cc2c(cc1C)[n+](=O)c(C(=O)CC(=O)C(=O)Nc1c(C(C)C)cccc1C(C)C)c(C)n2[O-]` had a TGI of more than 100 µM.
The same measure, in the same setting: as for `COc1ccc2cc1Oc1ccc(cc1)CC1c3cc(c(OC)cc3CCN1C)Oc1c3c(cc4c1C(C2)N(C)CC4)OCO3` (configuration not stated), the figure is 12.7 µM.
Still for that read-out and setting: as for `COc1ccc(OC)c(NC(=O)C(=O)C(C(C)=O)c2nc3ccc(Cl)cc3[nH]c2=O)c1` (configuration not stated), the figure is more than 50 µM; as for `N#CC(C(=N/O)/C(=N/O)C(C#N)c1ccc(Cl)cc1)c1ccc(Cl)cc1` (configuration not stated), more than 100 µM.
